US20260248767A1, “METHODS FOR INDUCING FERROPTOSIS IN CANCER” (Board of Regents, The University of Texas System, priority 2023, published 2026)

How the values were obtained:
oxidative PPP = experiment: Oxidative PPP flux calculation (1,2-[13C2] glucose); assay type: cell-based; details: sulfite vs vehicle treated cells
Method: Cells were seeded in six-well plates and incubated overnight, then given 2 ml of fresh medium containing 25 mM 1,2-[13C2] glucose. Aliquots of this medium were frozen and stored for analysis to determine the initial glucose concentration, and cells in replicate plates were trypsinized and counted to determine initial cell numbers. After 24 h, the spent medium was extracted as above and frozen until analysis, and the cells were trypsinized and counted to determine the final cell numbers.
For lactate isotopomer analysis the samples were analyzed directly. The relative quantities of M0, M1, M2 and M3 lactate were corrected for natural carbon-13 abundance using the IsoCorrectoR software package (Heinrich, P. et al. Sci Rep 8, 17910, doi: 10.1038/s41598-018-36293-4 (2018)). and the oxidative PPP-shunting ratio was calculated by taking the ratio M1/(M1+M2) (Badur, M. G. et al. Cell Rep 25, 1680, doi: 10.1016/j.celrep.2018.10.099 (2018)); since there is no difference in growth rates between the vehicle and sulfite treated cell lines, it is assumed that the biosynthetic demand for ribose-5-phosphate or any other PPP intermediate is the same in each case, so any increase in this ratio reflects an increase in NADPH production by the oxidative PPP.

HT-1080 cells = experiment: Relative mitochondrial lipid peroxidation level; assay type: cell-based, human; details: combined with RSL3, compared to RSL3 alone
cells = experiment: Metabolomic analysis of vehicle or sulfite treated cells; assay type: cell-based
Method: Metabolomic analysis was performed in vehicle or sulfite treated cells. An increase in the levels of 6-phospho-D-Gluconate (FIG. 3C), ribose phosphate (FIG. 3D), D-Glyceraldehyde 3-phosphate (FIG. 3E), D-sedoheptulose-1/7 phosphate (FIG. 3F), NDAP+/NADPH ratio (FIG. 3G), oxPPP shunting (FIG. 3H) were observed.
Metabolomic analysis was performed as previously described (Liu, X. et al. Nat Cell Biol 22, 476-486, doi: 10.1038/s41556-020-0496-x (2020)). Cells were seeded on 35-mm culture plates at a density sufficient to ensure approximately 70-80% confluence at the time of extraction. Metabolites were extracted at the indicated time points for subsequent analyses. Metabolites were extracted by rapidly aspirating the culture medium and then adding 500 μl of an 80% methanol: 20% water mixture at dry ice temperature. The plates were incubated on dry ice for 15 min before the cells were scraped into pre-chilled Eppendorf tubes. The cell debris was pelleted by centrifugation at 13,000 ref for 5 min at 4° C. and the supernatant was transferred into a fresh tube and stored on dry ice until analysis. Just before analysis, 500 μl of extract was dried under nitrogen gas flow and then resuspended in 100 μl water.
The complete platform consists of an Accela 1250 HPLC system, Accela Open Autosampler, MayLab Mistraswitch column oven and Exactive orbitrap mass spectrometer, controlled by the Xcalibur 3.0.63 software package. Chromatography was performed with a Phenomenex Synergi Hydro-RP column (100×2 mm, 2.5 μm particle size). Solvent A is 10 mM tributylamine and 15 mm acetic acid in water; Solvent B is methanol. The gradient is: 0 min, 0% B; 2.5 min, 0% B; 5 min, 20% B; 7.5 min, 20% B; 13 min, 55% B; 15.5 min, 95% B; 18.5 min, 95% B; 19 min, 0% B; 25 min, 0% B. The injection volume was 10 μl. The column temperature was set to 40° C., and the flow rate was 200 μl/min. The Exactive was operated in negative ionization mode with an electrospray ionization interface. The instrument parameters are as follows: sheath gas flow rate 30 (arbitrary units), aux gas flow rate 10 (arbitrary units), sweep gas flow rate 3 (arbitrary units), spray voltage 3 kV, capillary temperature 325° C., capillary voltage −25 V, tube lens voltage −50 V. The scan range was set to 80-1,000 m/z, with a maximum inject time of 250 ms, resolution of 100,000 at 1 Hz, and AGC (automatic gain control) target 1×10^6. The data were analyzed using the MAVEN software suite with signal intensity determined as the Peak Area (Top). For metabolic labelling experiments, the data were corrected to account for the natural abundance of nitrogen-15 using IsoCorrectoR (Heinrich, P. et al. Sci Rep 8, 17910, doi: 10.1038/s41598-018-36293-4 (2018)).

[1] = sulfite vs vehicle treated cells

O=S([O-])[O-].[Na+].[Na+] [sulfite, sodium sulfite]
increase: oxPPP shunting (oxidative PPP) | Levels of S-sulfocysteine (cells; sulfite treated samples) | level of 6-phospho-D-Gluconate (cells; [1]) | level of D-Glyceraldehyde 3-phosphate (cells; [1]) | level of D-sedoheptulose-1/7 phosphate (cells; [1]) | level of ribose phosphate (cells; [1])
significantly increased: relative mitochondrial lipid peroxidation level in combination with RSL3 (HT-1080 cells)
